In patent US20060069132A1, “Azolecarboxamide herbicides” (priority 2004, published 2006):
Read-outs that look alike come from different tables or passages of the source.

What was measured:
barnyardgrass [1] = test: Test B pre-/postemergence herbicide test; format: in vivo, Echinochloa crus-galli; details: for pest or weed control at 500 g/ha: 500 g ai/ha
Procedure, shortened: (§1)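 Visual rating, 0 (no effect) to 100 (complete control), versus untreated controls after 13–15 d in greenhouse. Pre- and postemergence applications (postemergence plants 2–18 cm, 1–4 leaves); flooded paddy arm at 2-leaf stage. Compounds in non-phytotoxic solvent plus surfactant.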

Surinam grass = test: Test B pre-/postemergence herbicide test; format: in vivo, Urochloa decumbens; details: for pest or weed control at 500 g/ha: 500 g ai/ha
Procedure, shortened: (§2)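 Response was scored visually 13 to 15 days after treatment against untreated greenhouse controls, 0 meaning no effect and 100 complete control. Formulations (solvent mixture plus surfactant) went onto soil after planting, onto foliage of 1- to 4-leaf plants, and onto 2-leaf plants in a flooded paddy set including rice and barnyardgrass.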

corn = test: Test B pre-/postemergence herbicide test; format: in vivo, Zea mays
Procedure, shortened: as §2

large crabgrass = test: Test B pre-/postemergence herbicide test; format: in vivo, Digitaria sanguinalis; details: for pest or weed control at 500 g/ha: 500 g ai/ha
Procedure, shortened: as §2

giant foxtail = test: Test B pre-/postemergence herbicide test; format: in vivo, Setaria faberi; details: for pest or weed control at 500 g/ha: 500 g ai/ha
Procedure, shortened: as §2

morningglory = test: Test B pre-/postemergence herbicide test; format: in vivo, Ipomoea coccinea; details: for pest or weed control at 500 g/ha: 500 g ai/ha
Procedure, shortened: as §1

pigweed = test: Test B pre-/postemergence herbicide test; format: in vivo, Amaranthus retroflexus; details: for pest or weed control at 500 g/ha: 500 g ai/ha
Procedure, shortened: as §2

velvetleaf = test: Test B pre-/postemergence herbicide test; format: in vivo, Abutilon theophrasti
Procedure, shortened: as §2

blackgrass = test: Test B postemergence herbicide test; format: in vivo, Alopecurus myosuroides; details: Alopecurus myosuroides, post-emergence, 336 h, read-out: Blackgrass plant response rating
Procedure, shortened: (§3)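 Visual ratings, 0 (no effect) to 100 (complete control), made versus controls after 13–15 d greenhouse. Paddy plants treated at 2-leaf stage; postemergence plants at 1- to 4-leaf stage, 2–18 cm tall.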

wheat = test: Test B postemergence herbicide test; format: in vivo, Triticum aestivum; details: Triticum aestivum, post-emergence, 336 h, read-out: Wheat plant response rating
Procedure, shortened: as §3

wild oat = test: Test B postemergence herbicide test; format: in vivo, Avena fatua; details: Avena fatua, post-emergence, 336 h, read-out: Oat, Wild plant response rating
Procedure, shortened: as §3

rice = test: Test B flooded paddy test; format: in vivo, Oryza sativa; details: Oryza sativa, 336 h, 1000 g ai/ha, scale 0 to 100 (0 no effect, 100 complete control), read-out: Rice plant response rating
Procedure, shortened: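 Postemergence plants were sprayed with formulated test chemicals at 2 to 18 cm height (1- to 4-leaf stage); paddy species were grown to the 2-leaf stage. After 13 to 15 days in a greenhouse, injury was rated visually against untreated controls on a 0–100 scale (0 = no effect, 100 = complete control).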

[2] = system: small flower umbrella sedge; test: Test B flooded paddy test; format: in vivo, Cyperus difformis; details: Cyperus difformis, 336 h, 1000 g ai/ha, scale 0 to 100 (0 no effect, 100 complete control), read-out: Sedge, Umbrella plant response rating
Procedure, shortened: as §3

ducksalad = test: Test B flooded paddy test; format: in vivo, Heteranthera limosa; details: Heteranthera limosa, 336 h, 1000 g ai/ha, scale 0 to 100 (0 no effect, 100 complete control), read-out: Ducksalad plant response rating
Procedure, shortened: as §3

barnyardgrass [3] = test: Test B flooded paddy test; format: in vivo, Echinochloa crus-galli; details: Echinochloa crus-galli, 336 h, 1000 g ai/ha, scale 0 to 100 (0 no effect, 100 complete control), read-out: Barnyardgrass plant response rating
Procedure, shortened: as §3

[4] = 125 g ai/ha, 0 is no effect, 100 is complete control, preemergence
[5] = 125 g ai/ha, visual rating, scale 0 (no effect) to 100 (complete control)
[6] = postemergence, 500 g ai/ha, scale 0 to 100, 0 is no effect, 100 is complete control

Q: How did the “Plant response rating (0 to 100 scale), Barnyardgrass” value (barnyardgrass [1]; [4]) turn out when `CCc1nn(C(C)C)nc1C(=O)Nc1cccc(C(=O)N(C)C)c1` [Compound 358, N-[3-[(dimethylamino)carbonyl)phenyl]-5-ethyl-2-(1-methylethyl)-2H-1,2,3-triazole-4-carboxamide] was run?
A: Its value is 70.

Q: And the pest or weed control at 125 g/ha (barnyardgrass [1]; Echinochloa crus-galli, post-emergence, 125 g ai/ha, visual rating, scale 0 (no effect) to 100 (complete control), read-out: Barnyardgrass plant response rating)?
A: The pest or weed control at 125 g/ha was 10%.

Q: What about the pest or weed control at 500 g/ha (barnyardgrass [1]; Echinochloa crus-galli, post-emergence, postemergence, scale 0 to 100, 0 is no effect, 100 is complete control, read-out: Barnyardgrass plant response rating) of the same molecule?
A: Its pest or weed control at 500 g/ha is 20%.

Q: What about the pest or weed control at 500 g/ha (barnyardgrass [1]; Echinochloa crus-galli, pre-emergence, visual rating, 0 = no effect, 100 = complete control, read-out: Plant response rating, Barnyardgrass) of the same molecule?
A: Its pest or weed control at 500 g/ha is 100%.

Q: What about the “Plant response rating (0 to 100 scale), Surinam Grass” value (Surinam grass; [4]) of the same molecule?
A: The value was 50.

Q: And the pest or weed control at 125 g/ha (Surinam grass; Urochloa decumbens, post-emergence, 125 g ai/ha, visual rating, scale 0 (no effect) to 100 (complete control), read-out: Surinam Grass plant response rating)?
A: Its pest or weed control at 125 g/ha is 10%.

Q: And the pest or weed control at 500 g/ha (Surinam grass; Urochloa decumbens, post-emergence, postemergence, scale 0 to 100, 0 is no effect, 100 is complete control, read-out: Surinam Grass plant response rating)?
A: Its pest or weed control at 500 g/ha is 10%.

Q: And the pest or weed control at 500 g/ha (Surinam grass; Urochloa decumbens, pre-emergence, visual rating, 0 = no effect, 100 = complete control, read-out: Plant response rating, Surinam Grass)?
A: Its pest or weed control at 500 g/ha is 100%.

Q: What about the “Plant response rating (0 to 100 scale), Corn” value (corn; [4]) of the same molecule?
A: The value was 60.

Q: And the plant injury at 125 g/ha (corn; Zea mays, post-emergence, 125 g ai/ha, visual rating, scale 0 (no effect) to 100 (complete control), read-out: Corn plant response rating)?
A: The plant injury at 125 g/ha was 0%.

Q: And the plant injury at 500 g/ha (corn; Zea mays, post-emergence, postemergence, 500 g ai/ha, scale 0 to 100, 0 is no effect, 100 is complete control, read-out: Corn plant response rating)?
A: Its plant injury at 500 g/ha is 0%.

Q: What about the Corn plant response rating (crop injury, 0 = no effect, 100 = complete kill) at 500 g/ha (corn; Zea mays, pre-emergence, 500 g ai/ha, visual rating, 0 = no effect, 100 = complete control) of the same molecule?
A: Its Corn plant response rating (crop injury, 0 = no effect, 100 = complete kill) at 500 g/ha is 100%.

Q: What about the “Plant response rating (0 to 100 scale), Crabgrass, Large” value (large crabgrass; [4]) of the same molecule?
A: Its value is 100.

Q: And the pest or weed control at 125 g/ha (large crabgrass; Digitaria sanguinalis, post-emergence, 125 g ai/ha, visual rating, scale 0 (no effect) to 100 (complete control), read-out: Crabgrass, Large plant response rating)?
A: Its pest or weed control at 125 g/ha is 10%.

Q: And the pest or weed control at 500 g/ha (large crabgrass; Digitaria sanguinalis, post-emergence, postemergence, scale 0 to 100, 0 is no effect, 100 is complete control, read-out: Crabgrass, Large plant response rating)?
A: Its pest or weed control at 500 g/ha is 10%.

Q: What about the pest or weed control at 500 g/ha (large crabgrass; Digitaria sanguinalis, pre-emergence, visual rating, 0 = no effect, 100 = complete control, read-out: Plant response rating, Crabgrass, Large) of the same molecule?
A: The pest or weed control at 500 g/ha was 100%.

Q: And the “Plant response rating (0 to 100 scale), Foxtail, Giant” value (giant foxtail; [4])?
A: The value was 60.

Q: And the pest or weed control at 125 g/ha (giant foxtail; Setaria faberi, post-emergence, 336 h, 125 g ai/ha, visual rating, scale 0 (no effect) to 100 (complete control), read-out: Foxtail, Giant plant response rating)?
A: The pest or weed control at 125 g/ha was 10%.

Q: And the pest or weed control at 500 g/ha (giant foxtail; Setaria faberi, post-emergence, 336 h, postemergence, scale 0 to 100, 0 is no effect, 100 is complete control, read-out: Foxtail, Giant plant response rating)?
A: The pest or weed control at 500 g/ha was 30%.

Q: And the pest or weed control at 500 g/ha (giant foxtail; Setaria faberi, pre-emergence, 336 h, visual rating, 0 = no effect, 100 = complete control, read-out: Plant response rating, Foxtail, Giant)?
A: The pest or weed control at 500 g/ha was 100%.

Q: What about the “Plant response rating (0 to 100 scale), Morningglory” value (morningglory; [4]) of the same molecule?
A: Its value is 50.

Q: And the pest or weed control at 125 g/ha (morningglory; Ipomoea, post-emergence, 336 h, 125 g ai/ha, visual rating, scale 0 (no effect) to 100 (complete control), read-out: Morningglory plant response rating)?
A: The pest or weed control at 125 g/ha was 20%.

Q: What about the pest or weed control at 500 g/ha (morningglory; Ipomoea, post-emergence, 336 h, postemergence, scale 0 to 100, 0 is no effect, 100 is complete control, read-out: Morningglory plant response rating) of the same molecule?
A: The pest or weed control at 500 g/ha was 50%.

Q: What about the pest or weed control at 500 g/ha (morningglory; Ipomoea, pre-emergence, 336 h, visual rating, 0 = no effect, 100 = complete control, read-out: Plant response rating, Morningglory) of the same molecule?
A: Its pest or weed control at 500 g/ha is 100%.

Q: And the “Plant response rating (0 to 100 scale), Pigweed” value (pigweed; [4])?
A: The value was 70.

Q: And the pest or weed control at 125 g/ha (pigweed; Amaranthus retroflexus, post-emergence, 336 h, 125 g ai/ha, visual rating, scale 0 (no effect) to 100 (complete control), read-out: Pigweed plant response rating)?
A: Its pest or weed control at 125 g/ha is 20%.

Q: What about the pest or weed control at 500 g/ha (pigweed; Amaranthus retroflexus, post-emergence, 336 h, postemergence, scale 0 to 100, 0 is no effect, 100 is complete control, read-out: Pigweed plant response rating) of the same molecule?
A: Its pest or weed control at 500 g/ha is 40%.

Q: And the pest or weed control at 500 g/ha (pigweed; Amaranthus retroflexus, pre-emergence, 336 h, visual rating, 0 = no effect, 100 = complete control, read-out: Plant response rating, Pigweed)?
A: The pest or weed control at 500 g/ha was 100%.

Q: And the “Plant response rating (0 to 100 scale), Velvetleaf” value (velvetleaf; [4])?
A: The value was 50.

Q: What about the pest or weed control at 125 g/ha (velvetleaf; Abutilon theophrasti, post-emergence, 336 h, 125 g ai/ha, visual rating, scale 0 (no effect) to 100 (complete control), read-out: Velvetleaf plant response rating) of the same molecule?
A: Its pest or weed control at 125 g/ha is 10%.

Q: And the pest or weed control at 500 g/ha (velvetleaf; Abutilon theophrasti, post-emergence, 336 h, postemergence, 500 g ai/ha, scale 0 to 100, 0 is no effect, 100 is complete control, read-out: Velvetleaf plant response rating)?
A: Its pest or weed control at 500 g/ha is 20%.

Q: And the pest or weed control at 125 g/ha (blackgrass; [5])?
A: Its pest or weed control at 125 g/ha is 10%.

Q: What about the pest or weed control at 500 g/ha (blackgrass; [6]) of the same molecule?
A: The pest or weed control at 500 g/ha was 40%.

Q: And the plant injury at 125 g/ha (wheat; [5])?
A: Its plant injury at 125 g/ha is 0%.

Q: What about the plant injury at 500 g/ha (wheat; [6]) of the same molecule?
A: The plant injury at 500 g/ha was 10%.

Q: What about the pest or weed control at 125 g/ha (wild oat; [5]) of the same molecule?
A: The pest or weed control at 125 g/ha was 20%.

Q: And the pest or weed control at 500 g/ha (wild oat; [6])?
A: The pest or weed control at 500 g/ha was 30%.

Q: And the plant injury at 1000 g/ha (rice)?
A: Its plant injury at 1000 g/ha is 70%.

Q: What about the pest or weed control at 1000 g/ha [2] of the same molecule?
A: The pest or weed control at 1000 g/ha was 80%.

Q: What about the pest or weed control at 1000 g/ha (ducksalad) of the same molecule?
A: Its pest or weed control at 1000 g/ha is 90%.

Q: And the pest or weed control at 1000 g/ha (barnyardgrass [3])?
A: Its pest or weed control at 1000 g/ha is 80%.
